Reference: US8987314B2, “Amide, urea or sulfone amide linked benzothiazole inhibitors of endothelial lipase” (Bristol-Myers Squibb Company, priority 2012, dated 2015)

Key:
[1] = target: Endothelial lipase (EL) (Homo sapiens (Human), UniProt Q9Y5X9); assay: EL assay: endothelial lipase activity with fluorescent substrate A10070 in DMPG vesicles; type: biochemical
Method in brief: (§1)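 Substrate A10070 sits in sonicated DMPG vesicles at 0.11 mole fraction. Lipase and compound preincubated 30 min, 37° C, in HEPES pH 8.0 buffer with CaCl2.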

[2] = target: hepatic lipase (HL) (Homo sapiens (Human), UniProt P11150); assay: HL assay: hepatic lipase activity with fluorescent substrate A10070 in DMPG vesicles; type: biochemical
Method in brief: as §1

hepatic lipase (HL), sequence (P11150 23-499, species assumed): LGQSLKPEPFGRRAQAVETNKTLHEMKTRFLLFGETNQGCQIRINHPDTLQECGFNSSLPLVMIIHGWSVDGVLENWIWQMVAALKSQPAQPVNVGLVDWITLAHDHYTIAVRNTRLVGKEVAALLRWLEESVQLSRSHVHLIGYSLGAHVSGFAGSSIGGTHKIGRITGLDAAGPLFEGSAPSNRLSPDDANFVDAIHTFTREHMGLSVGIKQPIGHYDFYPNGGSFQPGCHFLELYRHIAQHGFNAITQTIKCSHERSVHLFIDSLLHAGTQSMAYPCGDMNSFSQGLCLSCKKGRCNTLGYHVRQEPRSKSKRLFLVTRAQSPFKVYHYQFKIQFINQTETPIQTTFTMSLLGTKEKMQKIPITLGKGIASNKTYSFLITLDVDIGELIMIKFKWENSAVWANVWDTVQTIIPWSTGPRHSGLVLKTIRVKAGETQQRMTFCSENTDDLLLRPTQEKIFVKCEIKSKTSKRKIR
Endothelial lipase (EL), sequence (Q9Y5X9 21-500): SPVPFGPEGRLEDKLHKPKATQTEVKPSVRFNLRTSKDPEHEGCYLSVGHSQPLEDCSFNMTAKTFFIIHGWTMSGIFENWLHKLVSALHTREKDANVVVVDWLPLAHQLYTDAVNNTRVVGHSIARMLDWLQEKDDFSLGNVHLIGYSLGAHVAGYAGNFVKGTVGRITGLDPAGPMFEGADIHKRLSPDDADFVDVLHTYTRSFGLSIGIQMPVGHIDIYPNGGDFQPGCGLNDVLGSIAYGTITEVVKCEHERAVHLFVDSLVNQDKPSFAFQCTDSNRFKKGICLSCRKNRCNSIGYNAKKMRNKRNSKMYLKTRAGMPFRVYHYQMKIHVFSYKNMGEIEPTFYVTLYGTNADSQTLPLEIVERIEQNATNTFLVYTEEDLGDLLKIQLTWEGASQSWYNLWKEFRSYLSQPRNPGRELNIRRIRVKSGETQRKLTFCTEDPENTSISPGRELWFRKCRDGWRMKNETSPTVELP

SMILES	IC50 [1] [nM]	IC50 [2] [nM]
CN(CC(F)F)C(=O)c1cccc(-c2ccc3nc(C(C(=O)NCCS(N)(=O)=O)S(=O)(=O)CCC(F)(F)F)sc3c2)c1 (centres unmarked) [Example B338, N-(2,2-difluoroethyl)-N-methyl-3-(2-{[(2-sulfamoylethyl)carba-moyl](3,3,3-trifluoropro-panesulfonyl)methyl}-1,3-benzothiazol-6-yl)benzamide]	26.9	99.7
CC(F)(F)CNC(=O)c1cccc(-c2ccc3nc(C(C(=O)NCCS(N)(=O)=O)S(=O)(=O)CCC(F)(F)F)sc3c2)c1 (centres unmarked) [Example B339, N-(2,2-difluoropropyl)-3-(2-{[(2-sulfamoylethyl)car-bamoyl](3,3,3-trifluoropropanesulfon-yl)methyl}-1,3-benzothiazol-6-yl)benzamide]	9.7	49.2
CN(C)C(=O)c1cccc(-c2ccc3nc(C(C(=O)NCCS(N)(=O)=O)S(=O)(=O)CCC(F)(F)F)sc3c2)c1 (centres unmarked) [Example B340, N,N-dimethyl-3-(2-{[(2-sulfamoylethyl)carba-moyl](3,3,3-trifluoropro-panesulfonyl)methyl}-1,3-benzothiazol-6-yl)benzamide]	14.6	79.5
CC1(O)CCN(C(=O)c2cccc(-c3ccc4nc(C(C(=O)NCCS(N)(=O)=O)S(=O)(=O)CCC(F)(F)F)sc4c3)c2)CC1 (centres unmarked) [Example B341, 2-{6-[3-(4-hydroxy-4-methylpiperidine-1-carbonyl)phenyl]-1,3-benzothiazol-2-yl}-N-(2-sulfamoylethyl)-2-(3,3,3-trifluoropropanesulfon-yl)acetamide]	6	112
NS(=O)(=O)CCNC(=O)C(c1nc2ccc(-c3cccc(C(=O)N4CC[C@@H](O)C4)c3)cc2s1)S(=O)(=O)CCC(F)(F)F (stereo partly drawn) [Example B342, 2-(6-{3-[(3R)-3-hydroxy-pyrrolidine-1-carbon-yl]phenyl}-1,3-benzothiazol-2-yl)-N-(2-sulfamoyl-ethyl)-2-(3,3,3-trifluoro-propanesulfonyl)acetamide]	9.5	154
NS(=O)(=O)CCNC(=O)C(c1nc2ccc(-c3cccc(C(=O)N4CCC(F)(F)CC4)c3)cc2s1)S(=O)(=O)CCC(F)(F)F (centres unmarked) [Example B343, 2-{6-[3-(4,4-difluoro-piperidine-1-carbon-yl)phenyl]-1,3-benzothiazol-2-yl}-N-(2-sulfamoyl-ethyl)-2-(3,3,3-trifluoro-propanesulfonyl)acetamide]	13.5	38.1
NS(=O)(=O)CCNC(=O)C(c1nc2ccc(-c3cccc(C(=O)N4CC[C@H](O)C4)c3)cc2s1)S(=O)(=O)CCC(F)(F)F (some centres unmarked) [Example B344]	13.1	22.2
CC(C)(O)CNC(=O)c1cccc(-c2ccc3nc(C(C(=O)NCCS(N)(=O)=O)S(=O)(=O)CCC(F)(F)F)sc3c2)c1 (centres unmarked) [Example B345, N-(2-hydroxy-2-methyl-propyl)-3-(2-{[(2-sulfamoylethyl)carba-moyl](3,3,3-tnfluoropro-panesulfonyl)methyl}-1,3-benzothiazol-6-yl)benzamide]	1	213
Cc1cc2nc(C(C(=O)NCCS(N)(=O)=O)S(=O)(=O)Cc3ccccc3)sc2cc1-c1ccc(C(=O)N2CCOCC2)cc1 (centres unmarked) [Example B346, 2-{5-methyl-6-[4-(morpholine-4-carbon-yl)phenyl]-1,3-benzothiazol-2-yl}-2-phenylmethane-sulfonyl-N-(2-sulfamoylethyl)acetamide]	5.3	400
Cc1cc2nc(C(C(=O)NCCS(N)(=O)=O)S(=O)(=O)Cc3ccccc3)sc2cc1-c1ccc(C(=O)N2CC(C)(O)C2)cc1 (centres unmarked) [Example B347, 2-{6-[4-(3-hydroxy-3-methylazetidine-1-carbonyl)phenyl]-5-methyl-1,3-benzothiazol-2-yl}-2-phenylmethane-sulfonyl-N-(2-sulfamoylethyl)acetamide]	3.4	580
